Data set [1] concerns Crangonyx richmondensis ssp. laurentianus. Briefly: FEL; higher = less toxic. To be noted: short-term; duration: 22 day; whole body; M/F; Monoporeia affinis; parasite infection.
Data set [2] relates to Rattus norvegicus. To be noted: subchronic, oral, diet.
Data set [3] relates to Rattus norvegicus. To be noted: oral.
A further data set concerns Bird. As to conditions: reproductive, in ovo, M/F, White leghorn chicken, generation: F1.
A further data set relates to Monkey. To be noted: oral, capsule, Cynomolgus; for NOEL: short-term, duration: 29 days, blood: basophils + blood: eosinophils + blood: lymphocytes + blood: monocytes + blood: reticulocytes + blood: segmented neutrophils + blood….
A further data set has as its system Labeo boga. As to conditions: whole body, M/F.
Where [4] appears, read: chronic, duration: 14 weeks, diet, M, Crl:CD(SD) BR, non-segmented neutrophils (N-SEG).
[5] abbreviates: reproduction developmental, gavage, M/F, Sprague-Dawley, generation: F1, F1: IL-1beta mRNA level relative change: cortex (PND 0) + F1: IL-1beta mRNA level relative change: cortex (PND 21) + F1: IL-1beta mRNA level….
Where [6] appears, read: reproduction developmental, gavage, M/F, Sprague-Dawley, generation: F1, F1: TNFalpha mRNA level relative change: cortex (PND 0) + F1: TNFalpha mRNA level relative change: cortex (PND 21).
Where [7] appears, read: short-term, duration: 28 days, diet, F, Sprague-Dawley, spleen: spleen: relative weight + thymus: apoptotic cells in the thymic cortex + thymus: thymus: absolute weight + Total serum IgM level.
Where [8] appears, read: short-term, duration: 28 days, diet, M, Sprague-Dawley, spleen: spleen: absolute weight + thymus: thymus: absolute weight.
Where [9] appears, read: short-term, duration: 28 days, diet, M, Sprague-Dawley, thymus: apoptotic cells in the thymic cortex + thymus: apoptotic cells in the thymic medulla.
Setting [10] is: chronic, duration: 26 weeks, M, lymphocyte count (%) (Day 182).

From EPA's ToxValDB 9.5 come the findings set out here.

One may read the NOAEL as the highest tested level that showed no adverse finding.

Molecules are shown by their SMILES.

In turn, `O=S(=O)(O)C(F)(F)C(F)(F)C(F)(F)C(F)(F)C(F)(F)C(F)(F)C(F)(F)C(F)(F)F` [Perfluorooctanesulfonic acid] came in with an FEL in data set [1] of 5 mg/L. Moreover, in the data set on Rattus norvegicus [2] (duration: 90 days, M/F, CD, Deaths + Body Weight Changes: decrease + Food Consumption: decrease + Hematology: RBC decrease, HGB decrease, HCT decrease, WBC decrease, …), the no observed adverse effect level (NOAEL) was less than 2.88 mg/kg-day. In addition, the NOEL in the data set on Rattus norvegicus [3] (chronic, duration: 14 weeks, diet, F, Crl:CD(SD) BR, non-segmented neutrophils (N-SEG)) was determined as 1.56 mg/kg-day; with Rattus norvegicus [3] (setting [4]) it was 0.34 mg/kg-day; in the data set on Rattus norvegicus [3] (chronic, duration: 104 weeks, diet, F, Crl:CD(SD) BR, blood: basophils + blood: eosinophils + blood: monocytes + blood: white blood cell count (WBC) + spleen: spleen: absolute weight (53 weeks…) it was 1.56 mg/kg-day; with Rattus norvegicus [3] (chronic, duration: 104 weeks, diet, F, Crl:CD(SD) BR, spleen: spleen: absolute weight (14 weeks)), 0.39 mg/kg-day; in the data set with Rattus norvegicus [3] (chronic, duration: 104 weeks, diet, M, Crl:CD(SD) BR, blood: basophils + blood: eosinophils + blood: monocytes + blood: white blood cell count (WBC) + spleen: spleen: absolute weight (14 weeks…) it was 1.56 mg/kg-day; with Rattus norvegicus [3] (setting [5]), 0.1 mg/kg-day. The NOEL in the data set on Rattus norvegicus [3] (setting [6]) came out at 0.6 mg/kg-day; in the data set on Rattus norvegicus [3] (short-term, duration: 28 days, diet, F, Sprague-Dawley, blood: blood CD3+ cells + blood: blood CD3+CD4+ cells + blood: blood CD3+CD8+ cells + blood: blood CD45RA+ cells + IgG antibody titer (KLH…), 100 ppm; in the data set on Rattus norvegicus [3] (setting [7]) it was 50 ppm; in the data set on Rattus norvegicus [3] (short-term, duration: 28 days, diet, M, Sprague-Dawley, blood CD3+ cells + blood: blood CD3+ cells + blood: blood CD3+CD4+ cells + blood: blood CD3+CD8+ cells + blood: blood CD45RA+ cells + IgG …) it was 100 ppm; in the data set with Rattus norvegicus [3] (setting [8]) it was 50 ppm; in the data set with Rattus norvegicus [3] (setting [9]), 20 ppm. For the same compound, the NOEL with Monkey (F) came to 2 mg/kg-day; in the data set with Monkey (M) it was 2 mg/kg-day; in the data set on Labeo boga (short-term, duration: 7 day, Oryzias Melastigma, mRNA level for C8 gene + mRNA level for CAT gene + mRNA level for CCL20 gene + mRNA level for Cd3 gene + mRNA level for GPx gene), 1 mg/L; in the data set with Labeo boga (short-term, duration: 16 day, Thicklip grey mullet, relative apoA1 expression in liver (Day 2) + relative cc3 expression in liver (Day 16) + relative cc3 expression in liver (Day 2) + relative…) it was 2 ppm; in the data set on Labeo boga (subchronic, duration: 48 day, Atlantic Salmon, fresh weight + length + thymus: thymus somatic index + thymus: thymus volume), 0.1 mg/L. In addition, the LOEL stood at 1.33 mg/kg-day with Rattus norvegicus [3] (setting [4]); 0.039 mg/kg-day in the data set with Rattus norvegicus [3] (chronic, duration: 104 weeks, diet, F, Crl:CD(SD) BR, blood: lymphocytes + blood: segmented neutrophils); 1.56 mg/kg-day with Rattus norvegicus [3] (chronic, duration: 104 weeks, diet, F, Crl:CD(SD) BR, spleen: spleen: absolute weight (14 weeks) + spleen: spleen: relative weight (53 weeks)); 0.039 mg/kg-day in the data set on Rattus norvegicus [3] (chronic, duration: 104 weeks, diet, M, Crl:CD(SD) BR, blood: lymphocytes + blood: segmented neutrophils); 1.56 mg/kg-day in the data set on Rattus norvegicus [3] (chronic, duration: 104 weeks, diet, M, Crl:CD(SD) BR, spleen: spleen: absolute weight (53 weeks) + spleen: spleen: relative weight (53 weeks)); 0.6 mg/kg-day in the data set on Rattus norvegicus [3] (setting [5]). The LOEL turned out to be 0.1 mg/kg-day with Rattus norvegicus [3] (reproduction developmental, gavage, M/F, Sprague-Dawley, generation: F1, F1: IL-1beta mRNA level relative change: hippocampus (PND 0) + F1: TNFalpha mRNA level relative change: hippocampus (PND 0)); 2 mg/kg-day in the data set on Rattus norvegicus [3] (setting [6]); 100 ppm with Rattus norvegicus [3] (setting [7]); 2 ppm in the data set on Rattus norvegicus [3] (short-term, duration: 28 days, diet, M, Sprague-Dawley, Total serum IgG1 level); 100 ppm in the data set with Rattus norvegicus [3] (setting [8]); 50 ppm with Rattus norvegicus [3] (setting [9]). In addition, the LOEL in the data set with Labeo boga (short-term, duration: 7 day, Oryzias Melastigma, mRNA level for IL1b gene) was found to be 0.25 mg/L; in the data set with Labeo boga (short-term, duration: 10 day, Medaka, relative IL-1-beta mRNA expression + relative IL-8 mRNA expression + relative TNF-alpha mRNA expression), 1 mg/L; with Labeo boga (short-term, duration: 16 day, Thicklip grey mullet, relative apoA1 expression in liver (Day 16) + relative fabp expression in liver (Day 2)), 2 ppm; in the data set on Labeo boga (short-term, duration: 21 day, Atlantic Salmon, cortisol) it was 0.1 mg/L; with Labeo boga (subchronic, duration: 48 day, Atlantic Salmon, cortisol) it was 0.1 mg/L; with Labeo boga (subchronic, duration: 56 day, Atlantic Salmon, cortisol), 0.1 mg/L. Further, in the data set with Bird (F1: IgM and IgY antibody titer (SRBC) + F1: plasma lysozyme activity + F1: spleen: spleen: relative weight), the “LOEL (mg ion/kg egg)” value stood at 0.93. Further, the “NOEL (mg ion/kg egg)” value with Bird (F1: IgM antibody titer (SRBC) + F1: IgY antibody titer (SRBC) + F1: lymph node: normalized bursa mass + F1: PHA skin test (DTH response) + …) came to 4.6. Also, the “NOEL (TAD)” value in the data set on Monkey (chronic, duration: 26 weeks, F, lymphocyte count (Day 182) + lymphocyte count (LYMPH) (Day 182) + segmented neutrophil count (Day 182) + segmented neutrophil count (N-SEG…) is 115 mg/kg-day; in the data set with Monkey (setting [10]), 22.9 mg/kg-day; in the data set on Monkey (chronic, duration: 26 weeks, M, lymphocyte count (LYMPH) (Day 182) + segmented neutrophil count (%) (Day 182) + segmented neutrophil count (N-SEG) (Day 182)), 115 mg/kg-day. In the data set with Monkey (setting [10]), the “LOEL (TAD)” value came to 115 mg/kg-day.
On to `Cc1cccc(Nc2cc(Cl)nc(SCC(=O)O)n2)c1C` [[4-Chloro-6-(2,3-xylidino)-2-pyrimidinylthio]acetic acid], for which the NOEL in the data set with Rattus norvegicus [2] (M, Fischer 344, Body Weight Changes: decrease + Blood Chemistry: Alp increase, Bile acid increase, ALT increase, SDH increase + Absolute Organ Weight: Liver…) was less than 0.48 mg/kg-day.
